Article PMC8748766, “The catalytic activity of TCPTP is auto-regulated by its intrinsically disordered tail and activated by Integrin alpha-1” (Nature Communications, 2022)

T1: TCPTPCAT (residues 1-288) (human, UniProt P17706-2 1-288)
T1 construct: T cell protein tyrosine phosphatase (TCPTP, PTPN2), human, TC45 isoform, catalytic domain residues 1-288, cloned into pMCSG7; used for cross-linking in trans; source: E. coli BL21 (DE3) RIL, purified (His-trap, TEV cleavage, subtraction, SEC); not shown: His6, N-terminal, cleaved
T1 sequence (looked up): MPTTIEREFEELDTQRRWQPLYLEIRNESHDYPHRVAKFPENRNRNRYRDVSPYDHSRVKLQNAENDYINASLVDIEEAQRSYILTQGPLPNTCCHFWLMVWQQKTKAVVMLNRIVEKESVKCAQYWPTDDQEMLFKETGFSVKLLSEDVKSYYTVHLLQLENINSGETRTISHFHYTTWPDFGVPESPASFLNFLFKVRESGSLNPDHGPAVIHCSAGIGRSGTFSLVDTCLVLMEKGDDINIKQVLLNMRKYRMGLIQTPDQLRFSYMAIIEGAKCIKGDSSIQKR

B1: TCPTP_(Tail) (residues 289-387) (domain or fragment, human, UniProt P17706-2 289-387, looked up)
chain: WKELSKEDLSPAFDHSPNKIMTEKYNGNRIGLEEEKLTGDRCTGLSSKMQDTMEENSESALRKRIREDRKATTAQKVQQMKQRLNENERKRKRPRLTDT
notes: T cell protein tyrosine phosphatase (TCPTP, PTPN2), human, TC45 isoform, C-terminal tail residues 289-387, cloned into pMCSG7; used for cross-linking in trans; source: E. coli BL21 (DE3) RIL, purified (His-trap, TEV cleavage, subtraction, heat step 80 °C 10 min, SEC); not shown: His6, N-terminal, cleaved

Columns and labels:
TCPTP = settings: via the cytoplasmic tail of ITGA1; cited from earlier work
[1] = target: T1, TCPTPCAT (residues 1-288); test: cross-linking; in trans: TCPTPCAT (1-288) 0.75 μM with TCPTP_Tail (289-387) 75 or 150 μM (1:100 and 1:200), BS3 or DSSO 0 to 1000 μM, 25 mM Hepes pH 7.4, 50 mM NaCl, room temperature 1 h; band cut from SDS-PAGE, LC-MS or LC-MSn; settings: both partners purified

Molecule	activation of full-length TCPTP (TCPTP)	binding result [1]
integrin α1: collagen-binding integrin α1 (ITGA1)	activate full-length TCPTP	–
B1	–	binds
